From patent US6984632B1, “Complexes of paroxetine, with cyclodextrins or cyclodextrin derivatives” (Italfarmaco S.p.A., priority 1999, dated 2006)
Values after ≈ are worked out from the molar mass of the structure shown. Where a name gives a salt, the structure may show the parent alone.

Assays:
Assay type in all cases: physicochemical
[1] = Stability at 60° C., visual examination
Procedure: About 200 mg of paroxetine base and 1 g of the complex of Example 9 (corresponding to about 180 mg of paroxetine base) have each been introduced in a neutral white glass containers and stored, opened, in an oven at 60° C.
The product in the two containers has been visually examined after 48 hours of storage.

[2] = Solubility in water of complex of Example 9 vs non-complexed paroxetine base; settings: thermodynamic from solid; deionised water, room temperature, 4 hours stirring, spectrophotometry at 293 nm; read-out: solubility (content of paroxetine base in the solution)
Procedure: 5 g of the product of Example 9 were added to 10 ml of deionised water and kept under stirring for 4 hours at room temperature.
The suspension was then filtered through a cellulose acetate filter in order to remove the undissolved product.
The solution was analysed by 293 nm spectrophotometry against a standard solution of paroxetine base.

[3] = Solubility in water of complexes of Examples 1-5 vs non-complexed paroxetine HCl; settings: thermodynamic from solid; deionized water, 25° C., 24 hours stirring, spectrophotometry at 295 nm
Procedure: A solubility test was carried out on an amount of the complexes of Examples 1 to 5 corresponding 500 mg of paroxetine HCl and, as a comparison, on 500 mg of non-complexed paroxetine HCl.
Each sample was introduced into a container containing 5 ml of deionized water. The containers, closed with a plug were then set under stirring in a thermostatic bath at 25° C. for 24 hours.
The obtained suspensions were then filtered through a cellulose acetate filter and analysed by spectrophotometry at 295 nm, in comparison with a standard solution of paroxetine.
The results obtained are reported in FIG. 1 wherein the solubility of paroxetine HCl (in mg/ml) is represented as a function of the molar ratio between β-cyclodextrin and paroxetine HCl.

| Compound | visual appearance ([1]; 48 h 60° C., open glass container) | visual appearance ([1]; Initial) | solubility at 4 h [2] | solubility at 24 h [3] |
| --- | --- | --- | --- | --- |
| Fc1ccc([C@@H]2CCNC[C@H]2COc2ccc3c(c2)OCO3)cc1 [Paroxetine base, Paroxetine] | Brown liquid | Straw-Yellow liquid | 300 µg/mL (≈ 911 µM) |  |
| Fc1ccc([C@@H]2CCNC[C@H]2COc2ccc3c(c2)OCO3)cc1 [non-complexed paroxetine HCl, paroxetine HCl] |  |  |  | 5000 µg/mL |
